Measurements taken from US20070270421A1, “Novel pyridine Derivative and Pyrimidine Derivative (1)” (priority 2004, published 2007).

biological target: T1, HGFR (His6-HGFR cytoplasmic domain) (Homo sapiens, UniProt P08581); test: Inhibitory activity against HGFR tyrosine kinase activity (HTRF); type: biochemical; settings: biotin-poly(GT), ATP, 30° C. 10 min, read-out: IC50 (concentration necessary to inhibit HGFR kinase activity by 50%)
T1 construct: made in house; host or cells: Spodoptera frugiperda Sf9 insect cells (baculovirus, pFastBac-HT)
T1 sequence (P08581 956-1390 limits assumed): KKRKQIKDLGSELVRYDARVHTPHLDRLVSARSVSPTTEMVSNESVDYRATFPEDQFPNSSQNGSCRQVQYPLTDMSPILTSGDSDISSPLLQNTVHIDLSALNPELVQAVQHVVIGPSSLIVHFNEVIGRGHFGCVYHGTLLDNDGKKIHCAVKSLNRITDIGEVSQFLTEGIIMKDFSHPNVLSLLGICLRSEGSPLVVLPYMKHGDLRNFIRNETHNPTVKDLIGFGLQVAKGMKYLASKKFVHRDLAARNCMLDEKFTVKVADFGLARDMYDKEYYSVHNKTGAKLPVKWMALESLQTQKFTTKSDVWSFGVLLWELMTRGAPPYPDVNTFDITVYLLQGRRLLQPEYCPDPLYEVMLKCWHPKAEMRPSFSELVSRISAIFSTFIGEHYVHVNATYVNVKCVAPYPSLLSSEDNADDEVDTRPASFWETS
Description: The cytoplasmic domain of HGFR (Genbank Accession No. J02958) is a 1.3 kb DNA fragment beginning with Lys974 and including a stop codon, and described by Park et al. (Proc. Natl. Acad. Sci. U.S.A. 84(18), 6379-6383, 1987). The DNA fragment was isolated from the human placental cDNA library (purchased from Clontech) by PCR (TaKaRa Ex Taq™ Kit, purchased from TaKaRa) using two kinds of primers (SEQ ID NO: 1, 5′-[…]-3′ and SEQ ID NO: 2, 5′-[…]-3′, purchased from Invitrogen). The DNA fragment was cloned into a baculovirus transplace vector (pFastBac™-HT (purchased from GIBCO BRL)) to produce a recombinant construct. The construct was transfected into insect cells (Spodoptera frugiperda 9 (Sf9)) to produce a solution of HGFR transfected baculovirus (preparation of a recombinant baculovirus can be found in the standard text (Bac-to-Bac Baculovirus Expression System (GIBCO BRL)). The cloning of the other receptor tyrosine kinases and preparation of the recombinant baculovirus solutions were performed using a cytoplasmic fragment starting from Lys791 (VEGFR2, Genbank Accession No. L04947), a cytoplasmic fragment starting from Lys398 (FGFR1, Genbank Accession No. X52833) and a cytoplasmic fragment starting from Lys558 (PDGFRβ, Genbank Accession No. M21616) in stead of HGFR in the above method. EGFR was purchased from Sigma (Production No. E-2645).
To the suspension of Sf9 cells (3×10^8 cells) in SF-900II medium (purchased from Invitrogen) containing 2% FBS was added a solution of HGFR transfected baculovirus above (4 ml), followed by a shaking culture at 27° C. for 48 hrs. The cells infected with the HGFR transfected baculovirus were centrifuged at 1,000 rpm, 4° C. for 5 min to remove the supernatant. The precipitated infected cells were suspended in 80 ml of ice-cold PBS, and centrifuged at 1,000 rpm, 4° C. for 5 min to remove the supernatant. The precipitated infected cells were suspended in 40 ml of ice-cold Lysis Buffer (50 mM Tris-HCl (pH 8.5), 5 mM 2-mercaptoethanol, 100 mM KCl, 1 mM PMSF and 1% (v/v) NP-40). The suspension was centrifuged at 12,000 rpm, 4° C. for 30 min to provide a supernatant.
The supernatant was loaded onto an Ni-NTA agarose column (3 ml, purchased from Qiagen) equilibrated with 30 ml of Buffer A (20 mM Tris-HCl (pH 8.5), 5 mM 2-mercaptoethanol, 500 mM KCl, 20 mM imidazole and 10% (v/v) glycerol). The column was washed with 30 ml of Buffer A, 6 ml of Buffer B (20 mM Tris-HCl (pH 8.5), 5 mM 2-mercaptoethanol, 1 M KCl, and 10% (v/v) glycerol) and 6 ml of Buffer A in this order. Then, the column was eluted with 6 ml of Buffer C (20 mM Tris-HCl (pH 8.5), 5 mM 2-mercaptoethanol, 100 mM KCl, 100 mM imidazole, and 10% (v/v) glycerol) to provide a fraction. The fraction was entrapped in a dialysis membrane (purchased from Spectrum Laboratories), dialyzed at 4° C. overnight with 1 L of dialysis buffer (20 mM Tris-HCl (pH 7.5), 10% (v/v) glycerol, 1 mM dithiothreitol, 0.1 mM Na3VO4 and 0.1 mM EGTA), and stored at −80° C. until used. An aliquot of the dialyzed fraction was subjected to SDS electrophoresis, and then a recombinant protein (His6-HGFR, the HGFR cytoplasmic domain fused with six histidine at the N terminus) detected at a molecular weight of about 60 kDa when stained with Coomassie Brilliant Blue, was determined with regard to protein content using BSA (purchased from Sigma) as a standard. The VEGFR2 cytoplasmic domain, the FGFR1 cytoplasmic domain, and the PDGFRβ cytoplasmic domain were fused with six histidine at the N terminus by the similar method to produce respective recombinant proteins (His6-VEGFR2, His6-FGFR1, and His6-PDGFRβ). […]

Compound | IC50
CN(C)CCN1CCC(N(C)C(=O)Nc2cc(Oc3ccc(NC(=O)NC(=O)Cc4ccc(F)cc4)cc3)ccn2)CC1 [Example 354, 1-[1-(2-Dimethylaminoethyl)piperidin-4-yl]-3-[4-(4-{3-[2-(4-fluorophenyl)acetyl]ureido}phenoxy)pyridin-2-yl]-1-methylurea] | 160 nM
O=C(Cc1ccccc1)NC(=O)Nc1ccc(Oc2ccnc(NC(=O)N3CCN(CCN4CCC4)CC3)c2)c(F)c1 [Example 387, 4-[2-(Azetidin-1-yl)ethyl]piperazine-1-carboxylic acid {4-[2-fluoro-4-(3-phenylacetylureido)phenoxy]pyridin-2-yl}amide] | 120 nM
O=C(CC(=O)Nc1ccc(F)cc1F)Nc1ccc(Oc2ccnc(NC(=O)N3CCCC3)c2)c(F)c1 [Example 57, N-(3-Fluoro-4-{2-[(pyrrolidine-1-carbonyl)amino]pyridin-4-yloxy}phenyl)-N′-(2,4-difluorophenyl)malonamide] | 48 nM
O=C(CC(=O)Nc1ccc(Oc2ccnc(NC(=O)N3CCC3)c2)cc1Cl)Nc1ccc(F)cc1 [Example 64, N-(2-Chloro-4-{2-[(azetidine-1-carbonyl)amino]pyridin-4-yloxy}phenyl)-N′-(4-fluorophenyl)malonamide] | 59 nM
O=C(Cc1ccc(F)cc1)NC(=O)Nc1ccc(Oc2ccnc(NC(=O)N3CCN(CCN4CCC4)CC3)c2)cc1 [Example 389, 4-[2-(Azetidin-1-yl)ethyl]piperazine-1-carboxylic acid [4-(4-{3-[2-(4-fluorophenyl)acetyl]ureido}phenoxy)pyridin-2-yl]amide] | 130 nM
CN1CCN(C2CCN(C(=O)Nc3cc(Oc4ccc(NC(=O)NC(=O)Cc5ccc(F)cc5)cc4F)ccn3)CC2)CC1 [Example 343, 4-(2-Fluoro-4-{3-[2-(4-fluorophenyl)acetyl]ureido}phenoxy)-2-{[4-(1-methylpiperazin-4-yl)piperidin-1-yl]carbonylamino}pyridine] | 120 nM
O=C(Cc1ccccc1)NC(=O)Nc1ccc(Oc2ccnc(NC(=O)N3CCCC3)c2)cc1Cl [Example 47, Pyrrolidine-1-carboxylic acid {4-[3-chloro-4-(3-phenylacetylureido)phenoxy]pyridin-2-yl}amide] | 100 nM
CN(C)CCN1CCN(C(=O)Nc2cc(Oc3ccc(NC(=O)NC(=O)Cc4ccccc4)cc3F)ccn2)CC1 [Example 364, 2-{[4-(2-Dimethylaminoethyl)piperazin-1-yl]carbonylamino}-4-{2-fluoro-4-[3-(2-phenylacetyl)ureido]phenoxy}pyridine] | 97 nM
CN(C)CCN1CCCN(C(=O)Nc2cc(Oc3ccc(NC(=S)NC(=O)Cc4ccccc4)cc3F)ccn2)CC1 [Example 334, 4-(2-Dimethylaminoethyl)-[1,4]diazepane-1-carboxylic acid {4-[2-fluoro-4-(3-phenylacetylthioureido)phenoxy]pyridin-2-yl}amide] | 120 nM
CCN(CC)CCCN(C)C(=O)Nc1cc(Oc2ccc(NC(=O)CC(=O)Nc3ccc(F)cc3)c(F)c2)ccn1 [Example 83] | 82 nM
CN(C)CCCN1CCC(N(C)C(=O)Nc2cc(Oc3ccc(NC(=S)NC(=O)Cc4ccc(F)cc4)cc3F)ncn2)CC1 [Example 221, 1-[1-(3-Dimethylaminopropyl)piperidin-4-yl]-3-[6-(2-fluoro-4-{3-[2-(4-fluorophenyl)acetyl]thioureido}phenoxy)pyrimidin-4-yl]-1-methylurea] | 170 nM
CN(C)CCN1CCC(N(C)C(=O)Nc2cc(Oc3ccc(NC(=S)NC(=O)Cc4ccc(F)cc4)cc3F)ncn2)CC1 [Example 184, 1-[1-(2-Dimethylaminoethyl)piperidin-4-yl]-3-[6-(2-fluoro-4-{3-[2-(4-fluorophenyl)acetyl]thioureido}phenoxy)pyrimidin-4-yl]-1-methylurea] | 130 nM
CN1CCN(C2CCN(C(=O)Nc3cc(Oc4ccc(NC(=O)NC(=O)Cc5ccccc5)cc4F)ccn3)CC2)CC1 [Example 340, 4-{2-Fluoro-4-[3-(2-phenylacetyl)ureido]phenoxy}-2-{[4-(1-methylpiperazin-4-yl)piperidin-1-yl]carbonylamino}pyridine] | 77 nM
CN(C)[C@H]1CCN(C(=O)Nc2cc(Oc3ccc(NC(=S)NC(=O)Cc4ccccc4)cc3F)ccn2)C1 [Example 246, 2-{[(3S)-3-Dimethylaminopyrrolidin-1-yl]carbonylamino}-4-{2-fluoro-4-[3-(2-phenylacetyl)thioureido]phenoxy}pyridine] | 79 nM
CN1CCC(N(C)C(=O)Nc2cc(Oc3ccc(NC(=S)NC(=O)Cc4ccc(F)cc4)c(F)c3)ccn2)CC1 [Example 289, 3-[4-(3-Fluoro-4-{3-[2-(4-fluorophenyl)acetyl]thioureido}phenoxy)pyridin-2-yl]-1-methyl-1-(1-methylpiperidin-4-yl)urea] | 67 nM

Now those with a lower IC50, led by results:

IC50 | Compound
45 nM | O=C(Cc1ccc(F)cc1)NC(=S)Nc1ccc(Oc2ccnc(NC(=O)N3CCC(CN4CCC4)CC3)c2)cc1 [Example 394, 4-(Azetidin-1-ylmethyl)piperidine-1-carboxylic acid [4-(4-{3-[2-(4-fluorophenyl)acetyl]thioureido}phenoxy)pyridin-2-yl]amide]
45 nM | O=C(Cc1ccccc1)NC(=O)Nc1ccc(Oc2cc(NC(=O)N3CCCC3)ncn2)c(F)c1 [Example 46, Pyrrolidine-1-carboxylic acid {6-[2-fluoro-4-(3-phenylacetylureido)phenoxy]pyrimidin-4-yl}amide]
43 nM | CN(C)C(=O)Nc1cc(Oc2ccc(NC(=O)NC(=O)Cc3ccccc3)c(F)c2)ccn1 [Example 54, 3-{4-[3-Fluoro-4-(3-phenylacetylureido)phenoxy]pyridin-2-yl}-1,1-dimethylurea]
40 nM | CN1CCN(C2CCN(C(=O)Nc3cc(Oc4ccc(NC(=S)NC(=O)Cc5ccc(F)cc5)cc4F)ncn3)CC2)CC1 [Example 192, 4-(2-Fluoro-4-{3-[2-(4-fluorophenyl)acetyl]thioureido}phenoxy)-6-{[4-(1-methylpiperazin-4-yl)piperidin-1-yl]carbonylamino}pyrimidine]
28 nM | CN1CC[C@H](N(C)C(=O)Nc2cc(Oc3ccc(NC(=S)NC(=O)Cc4ccc(F)cc4)c(F)c3)ncn2)C1 [Example 281, 3-[6-(3-Fluoro-4-{3-[2-(4-fluorophenyl)acetyl]thioureido}phenoxy)pyrimidin-4-yl]-1-methyl-1-[(3S)-1-methylpyrrolidin-3-yl]urea]
26 nM | CN(C)C1CCN(C(=O)Nc2cc(Oc3ccc(NC(=S)NC(=O)Cc4ccccc4)cc3F)ccn2)CC1 [Example 38, 2-{[4-(Dimethylamino)piperidin-1-yl]carbonylamino}-4-{2-fluoro-4-[3-(2-phenylacetyl)thioureido]phenoxy}pyridine]
18 nM | CN(C)C(=O)Nc1cc(Oc2ccc(NC(=S)NC(=O)Cc3ccc(F)cc3)cc2F)ncn1 [Example 7, 3-[6-(2-Fluoro-4-{3-[2-(4-fluorophenyl)acetyl]thioureido}phenoxy)pyrimidin-4-yl]-1,1-dimethylurea]
18 nM | CN(C)C(=O)Nc1cc(Oc2ccc(NC(=O)NC(=O)Cc3ccc(F)cc3)cc2F)ncn1 [Example 51, 3-[6-(2-Fluoro-4-{3-[2-(4-fluorophenyl)acetyl]ureido}phenoxy)pyrimidin-4-yl]-1,1-dimethylurea]
